The target of experiment [1] is T1, BTK (Homo sapiens (Human), UniProt Q06187). In words: In Vitro BTK Kinase Assay: BTK-POLYGAT-LS ASSAY. To be noted: ATP 10 μM, polyGAT 100 nM, BTK 0.25 nM, 30 minutes. The experiment is classed as biochemical. Here is the method:
The purpose of the BTK in vitro assay is to determine compound potency against BTK through the measurement of IC50. […] The BTK kinase reaction was done in a black 96 well plate (costar 3694). For a typical assay, a 24 μL aliquot of a ATP/peptide master mix (final concentration; ATP 10 μM, polyGAT 100 nM) in kinase buffer (10 mM Tris-HCl pH 7.5, 10 mM MgCl2, 200 μM […], 5 mM DTT, 0.01% Triton X-100, and 0.2 mg/ml casein) is added to each well. Next, […] of a 4-fold, 40× compound titration in 100% DMSO solvent is added, followed by adding 15 μL of BTK enzyme mix in 1× kinase buffer (with a final concentration of 0.25 nM). The assay is incubated for 30 minutes before being stopped with […] of a 50 mM EDTA solution. Aliquots (5 μL) of the kinase reaction are transferred to a low volume white 384 well plate (Coming 3674), and […] of a 2× detection buffer (Invitrogen PV3574, with 4 nM Tb-PY20 antibody, Invitrogen PV3552) is added. The plate is covered and incubated for 45 minutes at room temperature. Time resolved fluorescence (TRF) on Molecular Devices M5 (332 nm excitation; 488 nm emission; 518 nm fluorescein emission) is measured.

In experiment [2] the target is T1, BTK. In words: In Vitro PD Assay in Human Whole Blood (pBTK assay). The experiment is classed as cell-based. Particulars: 37° C. for 30 min, 50% inhibition of ECL signal. Here is the method:
Human heparinized venous blood was purchased from Bioreclamation, Inc. or SeraCare Life Sciences and shipped overnight. Whole blood was aliquoted into 96-well plate and “spiked” with serial dilutions of test compound in DMSO or with DMSO without drug. The final concentration of DMSO in all wells was 0.1%. The plate was incubated at 37° C. for 30 min. Lysis buffer containing protease and phosphatase inhibitors was added to the drug-containing samples and one of the DMSO-only samples (+PPi, high control), while lysis buffer containing protease inhibitors was added to the other DMSO-only samples (−PPi, low control). All of the lysed whole blood samples were subjected to the total BTK capture and phosphotyrosine detection method described in US20160311802, incorporated herein by reference.

In general, IC50 refers to the point on the concentration scale where inhibition reaches its midpoint. Lower therefore signals inhibition by little substance.

T1 sequence (Q06187 whole entry): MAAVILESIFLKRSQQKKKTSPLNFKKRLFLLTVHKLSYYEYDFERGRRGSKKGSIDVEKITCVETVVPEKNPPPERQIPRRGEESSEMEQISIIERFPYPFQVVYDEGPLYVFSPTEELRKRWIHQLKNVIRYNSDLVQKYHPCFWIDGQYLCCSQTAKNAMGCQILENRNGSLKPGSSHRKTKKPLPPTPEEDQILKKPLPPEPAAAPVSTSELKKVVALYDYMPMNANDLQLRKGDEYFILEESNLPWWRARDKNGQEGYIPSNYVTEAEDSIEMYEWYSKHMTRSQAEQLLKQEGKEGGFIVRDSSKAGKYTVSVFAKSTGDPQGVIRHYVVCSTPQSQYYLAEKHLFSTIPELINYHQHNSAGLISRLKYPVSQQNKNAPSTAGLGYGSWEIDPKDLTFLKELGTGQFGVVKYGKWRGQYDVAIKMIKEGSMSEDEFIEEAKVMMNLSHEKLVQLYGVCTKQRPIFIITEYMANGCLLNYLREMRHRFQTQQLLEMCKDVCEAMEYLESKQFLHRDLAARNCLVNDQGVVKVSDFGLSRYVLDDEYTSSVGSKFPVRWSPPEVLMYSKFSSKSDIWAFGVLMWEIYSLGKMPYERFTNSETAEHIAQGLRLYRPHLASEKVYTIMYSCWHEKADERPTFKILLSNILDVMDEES

Turning to `Cc1cc(-c2ccnc(NC(=O)[C@@H]3C[C@H]3F)c2)ccc1CNC(=O)c1noc(C(C)(C)C)n1` [Compound 38, 5-(tert-butyl)-N-(4-(2-((1S,2R)-2-fluorocyclopropane-1-carboxamido)pyridin-4-yl)-2-methylbenzyl)-1,2,4-oxadiazole-3-carboxamide], the IC50 in experiment [1] is not above 1 nM; in experiment [2], 500 to 10000 nM.

Take `Cc1cc(-c2ccnc(NC(=O)C3CC3)c2)ccc1CNC(=O)c1nc(C(C)(C)CF)no1` [Compound 39, N-(4-(2-(cyclopropanecarboxamido)pyridin-4-yl)-2-methylbenzyl)-3-(1-fluoro-2-methylpropan-2-yl)-1,2,4-oxadiazole-5-carboxamide]: the figures for the IC50 in experiment [1] and in experiment [2] were not above 1 nM and 100 to 500 nM, respectively.

Consider `Cc1cc(-c2ccnc(NC(=O)C3CC3)c2)ccc1CNC(=O)c1noc(C(C)(C)CF)n1` [Compound 41, N-(4-(2-(cyclopropanecarboxamido)pyridin-4-yl)-2-methylbenzyl)-5-(1-fluoro-2-methylpropan-2-yl)-1,2,4-oxadiazole-3-carboxamide], for which the IC50 in experiment [1] was not above 1 nM; in experiment [2] it was 500 to 10000 nM.

For `CC(C)(C)c1noc(C(=O)N[C@@H]2CCCCc3cc(-c4ccnc(NC(=O)[C@@H]5CC56CCC6)c4)ccc32)n1` [Compound 42, 3-(tert-butyl)-N-((R)-2-(2-((R)-spiro[2.3]hexane-1-carboxamido)pyridin-4-yl)-6,7,8,9-tetrahydro-5H-benzo[7]annulen-5-yl)-1,2,4-oxadiazole-5-carboxamide], the IC50 was not above 1 nM in experiment [1] and 500 to 10000 nM in experiment [2].

On to `Cc1cc(-c2ccnc(NC(=O)C3CC3)c2F)ccc1CNC(=O)c1noc(C(C)(C)C)n1` [Compound 44, 5-(tert-butyl)-N-(4-(2-(cyclopropanecarboxamido)-3-fluoropyridin-4-yl)-2-methylbenzyl)-1,2,4-oxadiazole-3-carboxamide], for which the values for the concentration for half-maximal inhibition (IC50) in experiment [1] and in experiment [2] were 1 to 10 nM and 500 to 10000 nM, respectively.

For `CC(C)(C)c1noc(C(=O)N[C@@H]2CCCCc3cc(-c4ccnc(NC(=O)[C@@H]5CC5(C)C)c4)ccc32)n1` [Compound 45, 3-(tert-butyl)-N-((R)-2-(2-((R)-2,2-dimethylcyclopropane-1-carboxamido)pyridin-4-yl)-6,7,8,9-tetrahydro-5H-benzo[7]annulen-5-yl)-1,2,4-oxadiazole-5-carboxamide], the values for the 50% inhibitory concentration (IC50) in experiment [1] and in experiment [2] were 1 to 10 nM and more than 10000 nM, respectively.

Turning to `CC(C)(C)c1noc(C(=O)N[C@@H]2CCCCc3cc(-c4ccnc(NC(=O)[C@@H]5[C@@H]6COC[C@@H]65)c4)ccc32)n1` [Compound 46, N-((R)-2-(2-((1R,5S,6s)-3-oxabicyclo[3.1.0]hexane-6-carboxamido)pyridin-4-yl)-6,7,8,9-tetrahydro-5H-benzo[7]annulen-5-yl)-3-(tert-butyl)-1,2,4-oxadiazole-5-carboxamide], the concentration for half-maximal inhibition (IC50) in experiment [1] was not above 1 nM; in experiment [2] it was 500 to 10000 nM.

With `Cc1cc(-c2ccnc(NC(=O)C3CC3(C)C)c2)ccc1CNC(=O)c1noc(C(C)(C)C)n1` (stereo not drawn) [Compound 48, 5-(tert-butyl)-N-(4-(2-(2,2-dimethylcyclopropane-1-carboxamido)pyridin-4-yl)-2-methylbenzyl)-1,2,4-oxadiazole-3-carboxamide], the IC50 in experiment [1] is 1 to 10 nM; in experiment [2], more than 10000 nM.

In the case of `Cc1cc(-c2ccnc(NC(=O)C3CC3(F)F)c2)ccc1CNC(=O)c1noc(C(C)(C)C)n1` (stereo not drawn) [Compound 49, 5-(tert-butyl)-N-(4-(2-(2,2-difluorocyclopropane-1-carboxamido)pyridin-4-yl)-2-methylbenzyl)-1,2,4-oxadiazole-3-carboxamide], the IC50 in experiment [1] was not above 1 nM; in experiment [2], 500 to 10000 nM.

As for `CC(C)(C)c1noc(C(=O)N[C@@H]2CCCCc3cc(-c4ccnc(NC(=O)[C@@H]5C[C@H]5C#N)c4)ccc32)n1` [Compound 51, 3-(tert-butyl)-N-((R)-2-(2-((1R,2R)-2-cyanocyclopropane-1-carboxamido)pyridin-4-yl)-6,7,8,9-tetrahydro-5H-benzo[7]annulen-5-yl)-1,2,4-oxadiazole-5-carboxamide], the IC50 in experiment [1] was not above 1 nM; in experiment [2] it was 100 to 500 nM.

Regarding `CC(C)(C)c1noc(C(=O)N[C@@H]2CCCCc3cc(-c4ccnc(NC(=O)[C@@H]5C[C@H]5C(F)(F)F)c4)ccc32)n1` [Compound 52, 3-(tert-butyl)-N-((R)-2-(2-((1R,2R)-2-(trifluoromethyl)cyclo-propane-1-carboxamido)pyridin-4-yl)-6,7,8,9-tetrahydro-5H-benzo[7]annulen-5-yl)-1,2,4-oxadiazole-5-carboxamide], the concentration for half-maximal inhibition (IC50) in experiment [1] was not above 1 nM; in experiment [2], 500 to 10000 nM.

In the case of `CC(C)(C)c1nc(C(=O)N[C@H]2CCCOc3cc(-c4ccnc(NC(=O)C5CC5)c4)ccc32)no1` [Compound 53, (S)-5-(tert-butyl)-N-(8-(2-(cyclopropanecarboxamido)pyridin-4-yl)-2,3,4,5-tetrahydrobenzo[b]oxepin-5-yl)-1,2,4-oxadiazole-3-carboxamide], the half-maximal inhibitory concentration (IC50) in experiment [1] is 10 to 1000 nM; in experiment [2], more than 10000 nM.

Take `CC(C)(C)c1nc(C(=O)N[C@@H]2CCCOc3cc(-c4ccnc(NC(=O)C5CC5)c4)ccc32)no1` [Compound 54, (R)-5-(tert-butyl)-N-(8-(2-(cyclopropanecarboxamido)pyridin-4-yl)-2,3,4,5-tetrahydrobenzo[b]oxepin-5-yl)-1,2,4-oxadiazole-3-carboxamide]: the 50% inhibitory concentration (IC50) is not above 1 nM in experiment [1] and 100 to 500 nM in experiment [2].

As to `CC(C)(C)c1noc(C(=O)NC2CCCOc3cc(-c4ccnc(NC(=O)C5CC5)c4)ccc32)n1` (stereo not drawn) [Compound 55, 3-(tert-butyl)-N-(8-(2-(cyclopropanecarboxamido)pyridin-4-yl)-2,3,4,5-tetrahydrobenzo[b]oxepin-5-yl)-1,2,4-oxadiazole-5-carboxamide], the half-maximal inhibitory concentration (IC50) in experiment [1] is not above 1 nM; in experiment [2], 500 to 10000 nM.

Consider `CC(C)c1cc(-c2ccnc(NC(=O)C3CC3)c2)ccc1CNC(=O)c1noc(C(C)(C)C)n1` [Compound 56, 5-(tert-butyl)-N-(4-(2-(cyclopropanecarboxamido)pyridin-4-yl)-2-isopropylbenzyl)-1,2,4-oxadiazole-3-carboxamide], for which the IC50 is 1 to 10 nM in experiment [1] and more than 10000 nM in experiment [2].

Turning to `Cc1c(CNC(=O)c2noc(C(C)(C)C)n2)ccc(-c2cc(NC(=O)C3CC3)ncc2F)c1F` [Compound 57, 5-(tert-butyl)-N-(4-(2-(cyclopropanecarboxamido)-5-fluoropyridin-4-yl)-3-fluoro-2-methylbenzyl)-1,2,4-oxadiazole-3-carboxamide], the IC50 in experiment [1] is not above 1 nM; in experiment [2] it was 500 to 10000 nM.

Turning to `CC(C)(C)c1noc(C(=O)N[C@@H]2CCCCc3cc(-c4ccnc(NC(=O)C5CC5(F)F)c4)ccc32)n1` (stereo partly drawn) [Compound 58, 3-(tert-butyl)-N-((5R)-2-(2-(2,2-difluorocyclopropane-1-carboxamido)pyridin-4-yl)-6,7,8,9-tetrahydro-5H-benzo[7]annulen-5-yl)-1,2,4-oxadiazole-5-carboxamide], the IC50 in experiment [1] is not above 1 nM; in experiment [2], 500 to 10000 nM.

For the compound `CC1(c2nc(C(=O)NCc3ccc(-c4ccnc(NC(=O)C5CC5)c4)c(F)c3Cl)no2)CC1` [Compound 59, N-(2-chloro-4-(2-(cyclopropanecarboxamido)pyridin-4-yl)-3-fluorobenzyl)-5-(1-methylcyclopropyl)-1,2,4-oxadiazole-3-carboxamide], the IC50 is not above 1 nM in experiment [1] and 500 to 10000 nM in experiment [2].

Turning to `Cc1c(CNC(=O)c2noc(C(C)(C)C)n2)cc(F)c(-c2ccnc(NC(=O)C3CC3)c2)c1F` [Compound 61, 5-(tert-butyl)-N-(4-(2-(cyclopropanecarboxamido)pyridin-4-yl)-3,5-difluoro-2-methylbenzyl)-1,2,4-oxadiazole-3-carboxamide], the 50% inhibitory concentration (IC50) in experiment [1] is not above 1 nM; in experiment [2], 500 to 10000 nM.

On to `CC(C)(C)c1nc(C(=O)NC2CCCOc3cc(-c4ccnc(NC(=O)C5CC5)c4)ccc32)no1` (stereo not drawn) [Compound 65, 5-(tert-butyl)-N-(8-(2-(cyclopropanecarboxamido)pyridin-4-yl)-2,3,4,5-tetrahydrobenzo[b]oxepin-5-yl)-1,2,4-oxadiazole-3-carboxamide], for which the IC50 in experiment [1] is not above 1 nM; in experiment [2] it was 100 to 500 nM.

`CC(C)(C)c1nc(C(=O)N[C@@H]2CCCCc3cc(-c4ccnc(NC(=O)C5CC5)c4)ccc32)no1` [Compound 67, (R)-5-(tert-butyl)-N-(2-(2-(cyclopropanecarboxamido)pyridin-4-yl)-6,7,8,9-tetrahydro-5H-benzo[7]annulen-5-yl)-1,2,4-oxadiazole-3-carboxamide]: the IC50 in experiment [1] was not above 1 nM; in experiment [2], not above 100 nM.

Source of the values: patent publication US12240838B2, “Inhibiting agents for Bruton's tyrosine kinase” (BIOGEN MA INC., priority 2019, dated 2025).
